The text below walks through data of patent US11649235B2, “Pan-tropic entry inhibitors” (Emory University, priority 2018, dated 2023).

One may read the EC50 as the concentration at which the effect is half-maximal. Broadly, the IC50 is the concentration that gives 50% inhibition. As usually defined, the IC90 is the point of the concentration-response curve where the effect stands at 90%.

Where two headings read alike, the source gives them in different places.

The subject of one data set is HIV. As to conditions: in vitro resistance studies; cited from earlier work.
For a further data set, the system named is HIV-1IIIB. Nature of the data set: HIV MAGI assay, HIV-1IIIB. The class given is cell-based. As to conditions: Human immunodeficiency virus 1, MAGI; for EC50: Table 1, read-out: HIV MAGI EC50 HIVIIIB. The protocol:
(§1) HIV-1 and MAGI Tropism assays can be used to establish activity/cytotoxicity and synergy studies and ADME profiles of compounds are evaluated using in vitro assays such as CYP2D6/3A4 assays and metabolic stability in human and mouse liver microsomes (See Tables 2 and 3).

The subject of another data set is HIV-1BaL. Nature of the data set: HIV MAGI assay, HIV-1BaL. The class given is cell-based. As to conditions: Human immunodeficiency virus 1, MAGI; for EC50: Table 1, read-out: HIV MAGI EC50 HIVBa-L. The protocol: as §1
The target in a further data set is CYP2D6 (Homo sapiens (Human), UniProt P10635). Nature of the data set: Recombinant CYP inhibition assay (fluorometric), CYP2D6. The class given is in vitro ADME. As to conditions: for IC50: Table 1. The source says: (§2) Recombinant CYP Inhibition Assay: In a drug discovery program, a rapid screening for cyctochrome P450 (CYP450) inhibitors is a part of the existing standard for avoiding the development of drugs likely to give clinical pharmacokinetic drug-drug interactions and associated toxicities. A microtiter plate-based, direct fluorometric assay for the activities of the principal human drug-metabolizing enzymes, CYP2D6 and CYP3A4 can be used and these assays are rapid and compatible with existing high-throughput assay instrumentation.
(§3) Fluorometric Enzyme Inhibition Assays: Test compounds were dissolved in 100% organic solvent (CH3CN or DMSO) to make 30 mM stock solutions. […] A 100 mM potassium phosphate buffer was prepared and adjusted to pH 7.4. The 30 mM stock solution of test and control compounds (1 mM) were further diluted in phosphate buffer (100 mM, pH 7.4) to ensure the final organic solvent content was <0.2% in the reaction. In a separate falcon tube, a 2× enzyme/substrate (E/S) solution was prepared in phosphate buffer. The final concentration of CYP2D6 (Corning) and AMMC was 10 nM and 4 μM, and CYP3A4 (Corning) and BFC was 20 nM and 40 μM, respectively. In a separate falcon tube, a 2× NADPH regenerating system (NRS) was prepared in phosphate buffer. The final concentration for each component in the assay was as follows: • CYP2D6 assay=0.008 mM NADPH, 3.3 mM glucose 6-phosphate, 0.4 U of glucose-6-phosphate dehydrogenase/mL • CYP3A4 assay=2.45 mM NADPH, 24.7 mM glucose 6-phosphate, 1.25 U of glucose-6-phosphate dehydrogenase/mL
(§4) Both enzymatic assays were conducted in a 96-well microtiter plate (Black, Corning Costar) with a final volume of 100 μL. Preparation of the plate began with the addition of 74 μL of the E/S in the first well, and 50 μL to all subsequent wells (from 2-11). The test compounds (1 μL) were dissolved in the first well to give the first row a final volume of 75 μL. A 1:3 serial dilution of the test compound was conducted by removing 25 μL from the first well and diluting it with the second and so forth until the tenth row. Final concentrations yielded a range from 300 μM-0.01 μM. Well 11 contained no enzyme, and well 12 contained no inhibitor. Both were used as controls for background fluorescence. The plate was incubated for 10 min at 37° C. for CYP2D6, and 30 mins for CYP3A4. After incubation, the reaction was initiated by the addition of 50 μL of the 2× NRS to each well.
(§5) Immediately (within 1 min) the fluorescence was measured using a microplate reader (KC4, BioTek). CYP2D6 was monitored at Ex/Em=410/460 nm, and CYP3A4 monitored at Ex/Em=410/538 nm in kinetic mode that scanned every 5 min for 60 mins. Data was exported and corrected for background noise by subtracting the blank from the mean value of all other columns. […]

A further data set has as its target CYP3A4 (Homo sapiens (Human), UniProt P08684). Nature of the data set: Recombinant CYP inhibition assay (fluorometric), CYP3A4. Type of data set: in vitro ADME. As to conditions: for IC50: Table 1.
Description: as §2, §3, §4, §5

The conditions of data set [1]: for Relative % remaining, human liver microsomes / HLM: both, 3 μM, pH 7.4; for HLM: human, microsomes. The protocol:
Human Liver Microsomes: Pooled mixed gender human liver microsomes at a concentration of 20 mg/mL were purchased from XenoTech (Kansas City, Kans.). The vials of microsomes were stored at −80° C. and thawed on ice before each experiment. The microsomes were diluted to 1 mg/mL with 100 mM potassium phosphate buffer (pH 7.4).
Experimental Conditions: Test compounds were weighed and dissolved in 100% acetonitrile to make 2 mM stock solutions. […] The 2 mM stock solution of test and control compounds were further diluted in sodium phosphate buffer (100 mM, pH 7.4) to 50 μM to ensure the acetonitrile content was <0.2%.
The liver microsome assay was prepared in a 1.5 mL Eppendorf tube (Fisher Scientific) with a final volume of 1100 μL. Each reaction contained sodium phosphate buffer, liver microsomes (1 mg/mL), and test compound resulting in a final concentration of 3 μM. Following a 5 min pre-incubation of drug and microsomes in a 37° C. shaking incubator, the reaction was initiated with NADPH (110 μL). Aliquots (100 μL) were removed in duplicate at 0, 5, 10, 15, and […] and quenched in cold acetonitrile (200 μL). The aliquots were centrifuged at 12,000 g for 5 min and the supernatant removed and placed in an LCMS vial. […] A no NADPH negative control with test and control compound was conducted in singlet (150 μL) at the longest time point. Controls were processed and analyzed like test compounds.
An Agilent Technologies LCMS system consisting of an Agilent 6120 quadrupole mass spectrometer equipped with an Agilent 1200 binary pump, degasser, and auto sampler (Santa Clara, Calif.). The analytical column used for analysis was an XDB-Eclipse Plus C18 column (4.6 mm×150 mm column; Agilent Technologies). The mobile phase for the HPLC was 50 mM ammonium formate buffer, pH 3.5 (A) and acetonitrile (B). The samples were analyzed using the following 8-minute method: A linear gradient from 10% B to 95% B over for 5 minutes, with a 3 min hold at 95%. An equilibration at 10% B for 5 min was conducted after each run. Sample injection volume was 10 μL and the flow rate was 1.0 mL/min. Single ion monitoring of the mass in positive mode was conducted the molecular weight for each compound. Each time point was assessed on the LCMS and the area, based on the extracted ion, was manually integrated.
Calculations: The depletion of the compound was monitored as a function of time, and the area under the curve was manually integrated. The relative percent remaining was calculated using: Relative % remaining=AreaTime/AreaTime=0*100. The relative percentages for the duplicate runs were averaged and the standard deviations were calculated. Metabolism data averaged duplicates.
For orientation: Liver microsomes are vesicles of endoplasmic reticulum, rich in cytochrome P450 enzymes.

The nature of data set [2]: Mouse liver microsomes assay. As to conditions: for Relative % remaining, mouse liver microsomes: 3 μM compound, 1 mg/mL microsomes; for MLM: @ 10 min, Table 1. The class given is in vitro ADME. How it is done:
Controls were processed and analyzed like test compounds. […] The relative percent remaining was calculated using: Relative % remaining=[…]=0*100. […] Metabolism data averaged duplicates.

For data set [3], the system named is MAGI. Nature of the data set: Cytotoxicity in MAGI HIV-1IIIB assay. Type of data set: cell-based. As to conditions: Table 3. How it is done: as §1
Data set [4] has as its system MAGI. Briefly: Cytotoxicity in MAGI HIV-1BaL assay. As to conditions: Table 3; head prints TC90. Type of data set: cell-based. How it is done: as §1

Chain of CYP3A4 (P08684 whole entry): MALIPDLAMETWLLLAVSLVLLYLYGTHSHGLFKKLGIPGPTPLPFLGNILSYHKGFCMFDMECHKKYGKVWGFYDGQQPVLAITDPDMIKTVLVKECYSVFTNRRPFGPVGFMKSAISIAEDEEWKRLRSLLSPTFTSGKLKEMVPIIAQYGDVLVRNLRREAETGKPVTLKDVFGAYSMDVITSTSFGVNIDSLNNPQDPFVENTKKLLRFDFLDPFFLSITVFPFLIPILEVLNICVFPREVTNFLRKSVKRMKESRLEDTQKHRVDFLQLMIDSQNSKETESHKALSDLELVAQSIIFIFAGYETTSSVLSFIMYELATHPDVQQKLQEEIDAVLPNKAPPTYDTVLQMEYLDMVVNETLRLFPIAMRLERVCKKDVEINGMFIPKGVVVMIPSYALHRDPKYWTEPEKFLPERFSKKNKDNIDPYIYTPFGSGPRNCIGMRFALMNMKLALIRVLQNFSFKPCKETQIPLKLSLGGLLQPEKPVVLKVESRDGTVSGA
Chain of CYP2D6 (P10635 whole entry): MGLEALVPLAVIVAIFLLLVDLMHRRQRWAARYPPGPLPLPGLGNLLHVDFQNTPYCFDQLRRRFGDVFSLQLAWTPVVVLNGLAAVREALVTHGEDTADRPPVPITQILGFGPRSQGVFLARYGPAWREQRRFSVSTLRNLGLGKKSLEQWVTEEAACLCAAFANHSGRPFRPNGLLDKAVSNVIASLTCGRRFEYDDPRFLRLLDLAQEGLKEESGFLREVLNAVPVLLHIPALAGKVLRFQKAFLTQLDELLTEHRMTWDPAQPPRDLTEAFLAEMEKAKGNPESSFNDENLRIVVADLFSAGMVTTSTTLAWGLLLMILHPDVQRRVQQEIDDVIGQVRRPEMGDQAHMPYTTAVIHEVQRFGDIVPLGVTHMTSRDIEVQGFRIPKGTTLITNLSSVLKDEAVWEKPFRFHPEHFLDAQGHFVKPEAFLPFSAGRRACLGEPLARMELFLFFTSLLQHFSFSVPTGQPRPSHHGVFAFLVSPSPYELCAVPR

For the compound `c1cc(CN2CCCNCCNCCCNCC2)ccc1CN1CCCNCCNCCCNCC1` [AMD3100], the “Passages required to develop resistance” value with HIV is 63 passages.
Regarding `Cc1cn([C@H]2C[C@H](N=[N+]=[N-])[C@@H](CO)O2)c(=O)[nH]c1=O` [AZT], in the data set on HIV, the “Passages required to develop resistance” value is 11 passages.
Take `NCCCCN(C[C@@H]1CN(CC[C@H](NC(=O)C2CCC(F)(F)CC2)c2ccccc2)CCN1)[C@H]1CCCc2cccnc21` [Compound 1]: the EC50 with HIV-1IIIB was 0.22 µM; in the data set on HIV-1BaL it was 2.6 µM. Also, the IC50 on CYP2D6 and at CYP3A4 was more than 20 µM in each case. Moreover, the entries for the “Relative % remaining, human liver microsomes” value in [1] (10 min) and in data set [1] (0.5 h) were 58 ± 4.9% and 25 ± 0.1%, respectively. In data set [1] (10 min), this compound yielded an HLM of 58% @ 10 min. Further, the “Relative % remaining, mouse liver microsomes” value is 116 ± 3.1% in data set [2] (10 min) and 93 ± 8.9% in [2] (30 min). This compound showed an MLM in data set [2] of 100% @ 10 min.
For `NCCCCN(C[C@H]1CN(CC[C@H](NC(=O)C2CCC(F)(F)CC2)c2ccccc2)CCN1)[C@H]1CCCc2cccnc21` [Compound 2], the IC50 is 0.07 µM in the data set on HIV-1IIIB (Table 3), 2.61 µM in the data set on HIV-1BaL (Table 3), more than 20 µM at CYP2D6 and more than 20 µM on CYP3A4. Further, the IC90 in the data set with HIV-1IIIB (Table 3) was 0.68 µM; with HIV-1BaL (Table 3) it was 29.1 µM. The EC50 in the data set on HIV-1IIIB stood at 0.07 µM; in the data set with HIV-1BaL, 2.61 µM. In addition, in the data set with MAGI [3], the “MAGI HIV-1IIIB TC50” value is more than 10.0 µM. The “MAGI HIV-1BaL TC90” value with MAGI [4] amounted to 33.1 µM. On CYP2D6 (preliminary ADME screening), the “Inhibition of cytochrome P450 isoform 2D6 (in words)” value is on record as “does not inhibit”. The “Inhibition of cytochrome P450 isoform 3A4 (in words)” value on CYP3A4 (preliminary ADME screening) is given as “does not inhibit”. The “Stability in human liver microsomes (in words)” value in data set [1] is “good stability”. The entries for the “Relative % remaining, human liver microsomes” value in data set [1] (10 min) and in [1] (0.5 h) were 65 ± 8.6% and 78 ± 2.2%, respectively. The HLM in data set [1] (10 min) was found to be 65% @ 10 min. Besides, in data set [2], the “Stability in mouse liver microsomes (in words)” value is “good stability”. Besides, the “Relative % remaining, mouse liver microsomes” value was determined as 95 ± 7.2% in data set [2] (10 min) and 96 ± 6.5% in data set [2] (30 min). This compound also yielded an MLM in data set [2] of 95% @ 10 min.
Take `Cc1ccc(-c2ccc3c(c2)C=C(C(=O)Nc2ccc(C[N+](C)(C)C4CCOCC4)cc2)CCC3)cc1.[Cl-]` [TAK-779]: the “Passages required to develop resistance” value in the data set on HIV is 41 passages.
`Cc1ccnc2c1NC(=O)c1cccnc1N2C1CC1` [nevirapine]: the “Passages required to develop resistance” value in the data set on HIV is listed as 2 passages.
